# Reference: article PMC5467912, “Asymmetric regulation of quorum-sensing receptors drives autoinducer-specific gene expression programs in Vibrio cholerae” (PLoS Genetics, 2017)
# “And” between values parts separate entries of the source, which are not always exact repeats. Equal entries are not always repeated. Where two headings read alike, the source gives them in different places.
# Tests used:
# [1] = system: QS-controlled luxCDABE operon; type: cell-based; details: for RLU: PluxPQ-CqsS::3XFLAG LuxS-CqsA-
# WT CqsS = system: T1, WT CqsS; type: cell-based; details: Treatment 1uM
# T1 construct: made in house; host or cells: E. coli C43 (DE3), pET21b; used as inverted membrane vesicles
# CqsS C170Y = details: cited from earlier work
compound,measurement,setting,value
"CCCCCCCCCC(=O)[C@@H](O)CC [CAI-1, (S)-3-hydroxytridecan-4-one]",RLU,[1]; OD600 0.0561,7.33E+06 RLU
same,RLU,[1]; OD600 0.3257,8.15E+05 RLU
same,RLU,[1]; OD600 1.037,1.96E+05 RLU
same,RLU,[1]; OD600 1.243,3.52E+06 RLU
same,RLU,[1]; OD600 1.958,2.58E+09 RLU
same,RLU,[1]; OD600 2.673,3.36E+09 RLU
same,QS response when cqsS is under the luxPQ promoter,[1]; S9B Fig,incapable of inducing the premature response
same,Qrr4-GFP/OD600,WT CqsS,1736969 and 1605333 and 1622571
same,response of CqsS variant to CAI-1,CqsS C170Y,do not respond
